{"source": "patent US9567336B2", "about": "“Conjugated TLR7 and/or TLR8 and TLR2 agonists” (CAYLA, priority 2012, dated 2017)", "target": "T1, murine TLR7 (Mus musculus, UniProt P58681)", "T1 construct": "host or cells: HEK293 (HEK-Blue mTLR7)", "T1 sequence (P58681 27-1050)": "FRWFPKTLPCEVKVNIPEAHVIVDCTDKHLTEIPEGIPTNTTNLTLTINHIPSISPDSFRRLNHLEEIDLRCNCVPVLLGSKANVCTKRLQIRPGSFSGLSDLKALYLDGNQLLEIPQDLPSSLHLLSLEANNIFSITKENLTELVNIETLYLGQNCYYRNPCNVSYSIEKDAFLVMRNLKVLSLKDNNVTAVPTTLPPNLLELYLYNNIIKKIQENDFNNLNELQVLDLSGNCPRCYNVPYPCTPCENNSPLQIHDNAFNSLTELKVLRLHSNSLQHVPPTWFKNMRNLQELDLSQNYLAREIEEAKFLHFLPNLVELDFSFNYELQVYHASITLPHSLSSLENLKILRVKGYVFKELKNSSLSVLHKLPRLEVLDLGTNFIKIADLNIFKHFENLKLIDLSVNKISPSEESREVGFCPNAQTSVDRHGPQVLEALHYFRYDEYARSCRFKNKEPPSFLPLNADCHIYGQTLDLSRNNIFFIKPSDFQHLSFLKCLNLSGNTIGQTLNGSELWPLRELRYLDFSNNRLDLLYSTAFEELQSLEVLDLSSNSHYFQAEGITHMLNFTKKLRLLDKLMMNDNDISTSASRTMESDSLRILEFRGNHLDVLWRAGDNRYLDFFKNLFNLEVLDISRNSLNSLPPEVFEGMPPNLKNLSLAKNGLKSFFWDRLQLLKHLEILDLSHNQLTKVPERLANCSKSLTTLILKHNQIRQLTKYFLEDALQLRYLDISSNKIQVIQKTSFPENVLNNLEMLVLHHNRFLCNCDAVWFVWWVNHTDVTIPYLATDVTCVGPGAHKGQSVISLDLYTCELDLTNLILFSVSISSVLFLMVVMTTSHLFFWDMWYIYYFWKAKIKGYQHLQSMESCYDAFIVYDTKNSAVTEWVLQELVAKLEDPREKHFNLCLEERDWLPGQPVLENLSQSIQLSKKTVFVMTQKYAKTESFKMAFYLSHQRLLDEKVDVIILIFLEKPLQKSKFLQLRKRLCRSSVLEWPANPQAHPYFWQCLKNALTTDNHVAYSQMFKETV", "experiment": "HEK-Blue mTLR7 NF-κB/AP-1 SEAP reporter cell assay", "assay_type": "cell-based", "settings": "HEK-Blue mTLR7 reporter cells, 10 μg/mL to 10 pg/ml, 24 hours, OD at 655 nm; FIGS. 2A, 2B", "procedure": "Some conjugated compounds of the invention were tested for their ability to activate TLR7 and TLR2 receptor signaling. Cell-based assays were carried out using TLR7 and TLR2 reporter cell lines (InvivoGen). The reporter cell lines are engineered HEK293 cells, a human embryonic kidney cell line (ATCC, CRL-1573) that stably express either murine TLR7 (HEK-Blue™ mTLR7) or human TLR7 (HEK-Blue™ hTLR7) or murine TLR2 (HEK-Blue™ mTLR2) or human TLR2 (HEK-Blue™ hTLR2) with an NF-κB-inducible secreted embryonic alkaline phosphatase (SEAP) as the reporter gene. The SEAP reporter gene is placed under the control of the NF-κB and AP-inducible promoter. Stimulation with the corresponding TLR ligand activates NF-κB and AP-1, which induces the production of SEAP. Detection of SEAP is measured following culturing cells in HEK-Blue™ Detection media (InvivoGen). HEK-Blue™ Detection contains a SEAP substrate, which upon hydrolysis by SEAP produces a colorimetric change allowing for detection of SEAP as the protein is secreted. […] These assays were carried out using RAW-Blue™ Cells (InvivoGen), derived from RAW 264.7 mouse leukemic monocytic macrophage cell line (ATCC, CRL 2278) stably overexpressing a NF-κB/AP-1 inducible SEAP reporter constructs.\nTo perform the assay, cells were seeded on 96 well microliter plates at 50,000 or 100,000 cells per well for HEK-Blue™ Cells and RAW-Blue™ Cells respectively, and cultured at 37° C. in the presence of the conjugated compounds. The conjugated compounds were prepared as follows: First, stock solutions of the small molecule conjugated compounds of the invention were prepared in ethanol or water to a concentration of 10 mg/ml. A working dilution of the conjugated TLR7-TLR2 small molecules was made up in water and added to cells at a final range of concentrations from 10 μg/mL to 10 pg/ml. The working dilutions of the conjugated TLR7-TLR2 small molecules as the stated concentrations were directly added to the reporter cell lines and incubated at 37° C. for 24 hours. After 24 hours of incubation, the effect on reporter gene activity was determined by reading the OD at 655 nm using iMark™ Microplate Reader (BIO-RAD).\nThe conjugated compounds were tested alone for their ability to specifically activate TLR7 and TLR2, alongside the known TLR7 activators R848 or CL264 (InvivoGen) and the TLR2 agonists Pam2CSK4 or Pam3CSK4 (InvivoGen). The specificity of the TLR activity was determined by use of reporter cell lines to the other TLRs (data not shown). […] The molecules show a tendency to activate mouse TLR7 with greater sensitivity than human TLR7. […] Furthermore, dose-dependent responses of the conjugated compounds indicate significant TLR activities of TLR7 and TLR2 compared to the corresponding controls."}
{"compound": "CCCCCCCCCCCCCCCC(=O)OCC(CSC[C@H](N)C(=O)Nc1ccc(Cn2c(O)nc3c(N)nc(NCCCC)nc32)cc1)OC(=O)CCCCCCCCCCCCCCC", "note": "(mixture of isomers) [CL401, (R)-3-(2-amino-3-(4-((6-amino-2-(butylamino)-8-hydroxy-9H-purin-9-yl)methyl)phenylamino)-3-oxopropylthio)propane-1,2-diyl dipalmitate]", "values": [{"measurement": "ability to activate TLR7 receptors (murine TLR7)", "value": "activate TLR7 receptors"}]}
